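Cells were grown in 96-well plates and exposed to each compound for 48 hours at five concentrations; endpoints were interpolated linearly between bracketing concentrations, or set to the highest concentration if not reached. At the GI50, growth is halved. TGI is the concentration that stops growth completely.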
Legend:
Assay in all cases: NCI-60 cell line screen, 48 h
ACHN renal = test system: ACHN renal
HT29 colon = test system: HT29 colon
NCI-H226 lung = test system: NCI-H226 lung
NCI-H23 lung = test system: NCI-H23 lung
RPMI-8226 leukemia = test system: RPMI-8226 leukemia
SK-MEL-5 melanoma = test system: SK-MEL-5 melanoma
SNB-19 CNS = test system: SNB-19 CNS
SW-620 colon = test system: SW-620 colon
TK-10 renal = test system: TK-10 renal
UACC-62 melanoma = test system: UACC-62 melanoma

Structure (SMILES) | GI50 (ACHN renal) [nM] | TGI (ACHN renal) [µM] | GI50 (HT29 colon) [nM] | TGI (HT29 colon) [µM] | GI50 (NCI-H226 lung) [nM] | TGI (NCI-H226 lung) [µM] | GI50 (NCI-H23 lung) [nM] | TGI (NCI-H23 lung) [µM] | GI50 (RPMI-8226 leukemia) [nM] | TGI (RPMI-8226 leukemia) [µM] | GI50 (SK-MEL-5 melanoma) [nM] | TGI (SK-MEL-5 melanoma) [µM] | GI50 (SNB-19 CNS) [nM] | TGI (SNB-19 CNS) [µM] | GI50 (SW-620 colon) [nM] | TGI (SW-620 colon) [µM] | GI50 (TK-10 renal) [µM] | TGI (TK-10 renal) [µM] | GI50 (UACC-62 melanoma) [nM] | TGI (UACC-62 melanoma) [µM]
CCN1CCN(c2nc(NCCNc3ccnc4cc(Cl)ccc34)c3ccccc3n2)CC1 | 1930 | 3.89 | 793 | 7.47 | 1820 | 4.05 | 2770 | 10.7 | 1540 | 4.41 | 1820 | 3.21 | 1990 | 14 | 707 | 5.14 | 2.42 | 6.02 | 1410 | 2.94
O=C1NC(=O)C2C(=O)NC(=O)C1C2(c1ccccc1)c1ccc(Cl)cc1 (stereo not given) |  | > 100 |  | > 100 |  | > 100 |  | > 100 |  | > 100 |  | > 100 |  | > 100 |  | > 100 |  | > 100 |  | > 100
CN(C)CCNc1nc2ccccc2c2[nH]c3ccccc3c12 | 190 | 1.21 | 188 | > 77.1 | 587 | 4.74 | 960 | 4.65 | 648 | 1.97 | 1610 | 3.94 | 1040 | 8 | 764 | 19.7 | 0.429 | 1.95 | 1360 | 3.55
CN1CCCNCCN(CCc2ccccn2)CCCN(C)CC1 |  | > 100 |  | > 100 |  | > 100 |  | > 100 |  | > 70.4 |  | > 100 |  | > 100 |  | > 53.6 |  | > 100 |  | > 100
O=C(O)/C=C/C(=O)Nc1ncn[nH]1 |  | > 100 |  | > 100 |  | > 100 |  | > 100 |  | > 100 |  | > 100 |  | > 100 |  | > 100 |  | > 100 |  | > 100
COC(=O)c1c2c(c(C)[n+]([O-])c1C)C(=O)C=CC2=O | 1900 | 3.77 | 2410 | 6.54 | 1420 | 2.98 | 1630 | 4.27 | 2070 | 5.29 | 1140 | 2.41 | 1670 | 3.31 | 1540 | 3.74 | 2.74 | 7.74 | 1630 | 3.21
CN(C)c1ccc2c(c1)oc(=O)c1ccccc12 |  | 44.6 |  | 26.1 |  | 31.9 |  | 22.4 |  | 28.8 |  | 22.8 |  | 28.3 |  | 23.4 |  | 40 |  | 30.4
O=C1CCC(NC(=O)c2ccccc2)C(=O)N1 (stereo not given) |  | > 100 |  | > 100 |  | > 100 |  | > 100 |  | > 100 |  | > 100 |  | > 100 |  | > 100 |  | > 100 |  | > 100
Cn1c(-c2nonc2N)nc2cnccc21 | > 25000 | > 25 | > 25000 | > 25 | > 25000 | > 25 | > 25000 | > 25 | > 25000 | > 25 | > 25000 | > 25 | > 25000 | > 25 | > 25000 | > 25 | 11.3 | > 25 | > 25000 | > 25
OC(c1cccc(C(F)(F)F)c1)c1cnccc1NC1CCCCCC1 (stereo not given) | 1690 | 3.24 | 1780 | 3.72 | 2760 | 16.6 | 1850 | 5.39 | 1670 | 4.11 | 1610 | 3.04 | 1830 | 4.08 | 1720 | 3.37 | 1.74 | 3.24 | 1500 | 3.06
CN(C)CCNC(=O)c1cccc2nc3c(Cl)cccc3nc12 |  | 30.5 |  | 15.9 |  | 13.5 |  | 20.8 |  | 82.6 |  | > 42.3 |  | 57 |  | > 40.4 |  | > 54.8 |  | 3.87
Cc1cc(C)nc(NS(=O)(=O)c2ccc(NC(=O)c3cccc4c(=O)c5ccccc5[nH]c34)cc2)n1 |  | 49.2 |  | 43.9 |  | 36 |  | 33.4 |  | 83 |  | 24 |  | 80.7 |  | 55.5 |  | 51 |  | 44.5
O=C(Cc1ccc(/C=C/C(=O)c2ncc[nH]2)cc1)Nc1ccc(Cl)cc1 | 4040 | 7.66 | 886 | 2.96 | 7500 | > 25 | 2970 | 11.5 | 857 | 3.92 | 6160 | 17.4 | 2320 | 6.73 | 1430 | > 25 | 5.41 | 13.9 | 3940 | 9.48
CN=C1NC(=O)/C(=C/c2ccc3ncccc3c2)S1 | 6770 | > 25 | 9140 | > 25 | 8160 | > 25 | 8380 | > 25 | 12100 | > 25 | 7440 | > 20.1 | 9500 | > 25 | 8410 | > 25 | 6.02 | > 25 | 8310 | > 25
CCOC(=O)c1cc(-c2ccc([N+](=O)[O-])cc2)n(-c2ccc(C(=O)O)c(O)c2)c1C | 2940 | 9.38 | 3230 | 13.3 | 11200 | 33.9 | 3180 | 13.7 | 148 | > 100 | 1640 | 3.43 | 5660 | 19.1 | 4760 | 16.8 | 6.18 | 20 | 3950 | 15.4

Reference: PubChem BioAssay (NCI)
